Among the data in patent publication US4005219A, “Pharmaceutical compositions and their administration for the prophylaxis of asthma, hayfever and rhinitis” (Beecham Group Limited, priority 1974, dated 1977) are inhibition in vivo values, retold here.

For the test, the system named is PCA response. Description: Rat Passive Cutaneous Anaphylaxis (PCA) test. The conditions noted are these: iv. Format: in vivo, Wistar rats. The protocol: All of the 2-nitro indane-1,3-diones prepared in the preceeding Examples were submitted for biological testing. The test system was the Rat Passive Cutaneous Anaphylaxis (PCA) test described below in (II).
7, 681Serum containing heat labile homocytotropic antibody was raised in rats by a method similar to that used by Mota. (I. Mota Immunology 1964, 7, 681).
Male Wistar rats of 250-300g, were injected intraperitoneally with 0.5ml. of Bordetella pertussis vaccine (containing 4 × 10^10 dead oranism per ml. and subcutaneously with 0.5ml. of an emulsion of 100mg. of ovalbumin in 2ml of saline and 3ml of incomplete Freunds' adjuvant. Rats were bled by cardiac puncture on day 18, the blood was pooled and separated and serum stored at -20° and thawed only once before use.
II. The P.C.A. test was similar to that described by Ovary and Bier (A. Ovary and O. E. Bier. Proc. Soc. Exp. Biol. Med. 1952, 81, 584) and Goose and Blair (J. Goose and A. M. J. N Blair Immunology 1969, 16, 749).
0.1ml of each of six twofold serial dilutions of the serum in 0.9% saline were injected intradermally into separate sites on the shaved dorsal surface of 250-350g. Wistar rats. 72 hours later the animals were challenged by i.v. injection of 0.3ml of 1% ovalbumin mixed with 0.1ml of a 5% solution of pontamine sky blue dye both in isotonic saline buffered with pH. 7.2 Sorenson buffer (P.B.S.). The rats were killed after 20 minutes and the diameter of the blue wheals at the antibody injection sites were measured. The starting dilution of the serum was adjusted so that there was no response, after challenge, at the site of injection of the highest dilution and a maximum response at the lowest dilution. Typically six twofold serial dilutions of the serum from one-fourth to […] were used.
Compounds were tested for their ability to reduce the diameter of the wheals at the injection sites of dilutions of antibody which on all the controls have less than maximum response. Amounts of the compounds were administered to rats each amount to a test group of six animals at a specified time prior to intravenous challenge with ovalbumin. The diameters of the blue wheals which developed on the test group of animals were compared with those on a control group of six animals treated in the same way as the test group, but which had not received the compound under test.
% Inhibition of P.C.A. = 100 (1 - a/b)
a = The mean of the sum of the diameters of the wheals produced in the test group of animals at those antibody sites where all the control group of animals gave less than maximum response.
b = The mean of the sum of diameters of the wheals produced in the control group of animals at those antibody sites where all the animals in the group gave less than maximum response.
The preferred method of administration was as a solution of the test compound dissolved in pH 7.2 buffer and neutralised with sodium bicarbonate. For those compounds having insoluble sodium salts, the salts were isolated by reaction of the free nitro compound with 2.5N sodium hydroxide and the filtered sodium salt washed free of alkali with water. The dried salts were then administered as a suspension in 1% methyl cellulose.

Where [1] appears, read: 0 h, Time 0 mins (prior to i.v. ovalbumin challenge).
Setting [2] is: 1 h, Time 60 mins (prior to i.v. ovalbumin challenge).
Where [3] appears, read: 0.5 h, Time 30 mins (prior to i.v. ovalbumin challenge).

For orientation: inhibition in vivo means the drop in the measured response relative to a control, in per cent. As to `CC1CCC(C)[C@@H]2C(=O)C([N+](=O)[O-])C(=O)[C@H]12` (stereo partly drawn) [4(b), 4,7-Dimethyl cis-hexahydro-2-nitro indane-1,3-dione], the inhibition in vivo at 25 mg/kg under setting [1] was 4% and the inhibition in vivo at 25 mg/kg under setting [2] is 13%. Also, the inhibition in vivo at 100 mg/kg under setting [1] came to 19% and the inhibition in vivo at 100 mg/kg under setting [2] was 11%.

With `O=C1C2C3CCC(C3)C2C(=O)C1[N+](=O)[O-]` (stereo not shown) [7(b), 4-Nitro tricyclo [5,2,1,0^2,6] decane-3,5-dione], the inhibition in vivo at 25 mg/kg by setting is: under setting [1], 8%; under setting [3], -3%. For the same molecule, the inhibition in vivo at 100 mg/kg reads like this: under setting [1], 26%; under setting [3], 9%.

For `CC1CCC[C@@H]2C(=O)C([N+](=O)[O-])C(=O)[C@H]12` (stereo partly drawn) [II(b), 4-Methyl-2-nitro-cis-hexahydroindane-1,3-dione], under setting [1], the inhibition in vivo at 25 mg/kg was -13% and the inhibition in vivo at 100 mg/kg worked out at 11%. For the same molecule, under setting [3], the inhibition in vivo at 25 mg/kg is -8% and the inhibition in vivo at 100 mg/kg came out at 17%.

`CC1C[C@@H]2C(=O)C([N+](=O)[O-])C(=O)[C@@H]2CC1C` (stereo partly drawn) [2(b), 5,6-Dimethyl cis-hexahydro-2-nitro indane-1,3-dione]: the inhibition in vivo at 25 mg/kg by setting is: under setting [1], 7%; under setting [3], 6%. The inhibition in vivo at 100 mg/kg under setting [1] stood at 31% and the inhibition in vivo at 100 mg/kg under setting [3] was 37%.

In the case of `O=C1C2C3CCC(CC3)C2C(=O)C1[N+](=O)[O-]` (stereo not shown) [13(b), 4-Nitro tricyclo [5,2,2,0^2,6] undecane-3,5-dione], the inhibition in vivo at 25 mg/kg under setting [1] came to 14% and the inhibition in vivo at 25 mg/kg under setting [3] was 13%. Further, the inhibition in vivo at 100 mg/kg by setting is: under setting [1], 8%; under setting [3], 29%.

On to `COC(=O)C1C=CC[C@@H]2C(=O)C([N+](=O)[O-])C(=O)[C@H]12` (stereo partly drawn) [9(b), 4-Carbomethoxy-2-nitro-cis-3a, 4,7,7a-tetrahydroindane-1,3-dione], for which, under setting [1], the inhibition in vivo at 25 mg/kg turned out to be 2% and the inhibition in vivo at 100 mg/kg came to 10%. Under setting [3], the inhibition in vivo at 25 mg/kg was -9% and the inhibition in vivo at 100 mg/kg was -5%.

As to `CC1C=CC[C@@H]2C(=O)C([N+](=O)[O-])C(=O)[C@H]12` (stereo partly drawn) [8(b), 4-Methyl-2-nitro-cis-3a,4,7,7a-tetrahydroindane-1,3-dione], under setting [1], the inhibition in vivo at 25 mg/kg is 12% and the inhibition in vivo at 100 mg/kg was determined as 41%. For the same molecule, under setting [3], the inhibition in vivo at 25 mg/kg was found to be 13% and the inhibition in vivo at 100 mg/kg was 52%.

On to `CC1=C(C)C[C@H]2C(=O)C([N+](=O)[O-])C(=O)[C@H]2C1` (relative stereo) [1(b), 5,6-Dimethyl-2-nitro cis-3a,4,7,7a-tetrahydroindane-1,3-dione], for which the inhibition in vivo at 25 mg/kg came to 16% under setting [1] and 6% under setting [3]. In addition, the inhibition in vivo at 100 mg/kg under setting [1] stood at 61% and the inhibition in vivo at 100 mg/kg under setting [3] worked out at 42%.

With `CC1C=CC(C)[C@@H]2C(=O)C([N+](=O)[O-])C(=O)[C@H]12` (stereo partly drawn) [3(b), 4,7-Dimethyl-2-nitro cis-3a,4,7,7a-tetrahydroindane-1,3-dione], under setting [1], the inhibition in vivo at 25 mg/kg was -8% and the inhibition in vivo at 100 mg/kg was -8%. Further, under setting [3], the inhibition in vivo at 25 mg/kg was 7% and the inhibition in vivo at 100 mg/kg is -1%.

Regarding `O=C1C2C3C=CC(C3)C2C(=O)C1[N+](=O)[O-]` (stereo not shown) [6(b), 4-Nitro tricyclo [5,2,1,0^2,6] dec-8-ene-3,5-dione], the inhibition in vivo at 25 mg/kg is, setting by setting: under setting [1], -9%; under setting [2], -9%. Further, the inhibition in vivo at 100 mg/kg came out at 4% under setting [1] and 17% under setting [2].

`O=C(O)C1C=CC[C@@H]2C(=O)C([N+](=O)[O-])C(=O)[C@H]12` (stereo partly drawn) [5(b), 4-Carboxy-2-nitro cis-3a,4,7,7a-tetrahydroindane-1,3-dione]: under setting [1], the inhibition in vivo at 25 mg/kg came out at 2% and the inhibition in vivo at 100 mg/kg was -3%. Under setting [3], the inhibition in vivo at 25 mg/kg is -1% and the inhibition in vivo at 100 mg/kg is -6%.

As to `CC(=O)OC1CCC[C@@H]2C(=O)C([N+](=O)[O-])C(=O)[C@H]12` (stereo partly drawn) [10(b), 4-Acetoxy-cis-hexahydro-2-nitro-indane-1,3-dione], under setting [1], the inhibition in vivo at 25 mg/kg was determined as 12% and the inhibition in vivo at 100 mg/kg came out at 11%. Under setting [3], the inhibition in vivo at 25 mg/kg worked out at 17% and the inhibition in vivo at 100 mg/kg came out at 20%.

For the molecule `O=C1C2C3C=CC(CC3)C2C(=O)C1[N+](=O)[O-]` (stereo not shown) [12(b), 4-Nitro tricyclo [5,2,2,0^2,6] undec-8-ene-3,5-dione], under setting [1], the inhibition in vivo at 25 mg/kg stood at 0% and the inhibition in vivo at 100 mg/kg is -3%. In addition, under setting [3], the inhibition in vivo at 25 mg/kg was 29% and the inhibition in vivo at 100 mg/kg was determined as 32%.
